# Experimental data published in patent publication US7759345B2, “Antitumoral derivatives of ET-743” (priority 2001, dated 2010).
# Read-outs that look alike come from different tables or passages of the source.
# Legend:
# HT-29 [1] = test: Inhibition of cell growth by counting cells, HT-29; type: cell-based, human; details: Homo sapiens, HT-29, 72 h; three days of incubation; read-out: IC50 (molar) HT-29
# Summary of the method: (§1)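 Monolayer lines were plated at 1×10^4 cells per well with compound in medium containing 5% FCS. After a 3-day incubation at 37° C, crystal violet staining gave an approximate IC50, and cell counting of duplicate wells gave the dose-response IC50.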
# MEL-28 = test: Inhibition of cell growth by counting cells, MEL-28; type: cell-based, human; details: Homo sapiens, SK-MEL-28, 72 h; three days of incubation; read-out: IC50 (molar) MEL-28
# Summary of the method: as §1
# A-549 [2] = test: Inhibition of cell growth by counting cells, A-549; type: cell-based, human; details: Homo sapiens, A549, 72 h; three days of incubation; read-out: IC50 (molar) A-549
# Summary of the method: as §1
# P-388 = test: Inhibition of cell growth by counting cells, P-388; type: cell-based, mouse; details: Mus musculus, P388, 72 h; three days of incubation; read-out: IC50 (molar) P-388
# Summary of the method: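 Mouse P-388 lymphoid neoplasm suspension cells seeded at 1×10^4 cells/well in EMEM 5% FCS containing graded sample concentrations, in duplicate alongside drug-free growth controls. Cells counted by Coulter counter; % growth vs untreated gives dose-response curves, IC50 = concentration producing 50% growth inhibition.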
# K-562 = test: Inhibition of cells growth by colorimetric assay (SRB), K-562; type: cell-based; details: K-562, SRB, 48 hours exposure
# Summary of the method: (§2)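 Growth inhibition is measured by sulforhodamine B staining of TCA-fixed cells after 48 h of compound exposure across 10 to 10^−8 μg/ml. Cells are seeded at 5×10^3 per well and grown drug-free for 18 h beforehand; absorbance at 490 nm yields GI, TGI and LC values.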
# SK-BR-3 = test: Inhibition of cells growth by colorimetric assay (SRB), SK-BR-3; type: cell-based; details: SK-BR3, SRB, 48 hours exposure
# Summary of the method: as §2
# LoVo-Dox = test: Inhibition of cells growth by colorimetric assay (SRB), LoVo-Dox; type: cell-based; details: LOVO-DOX, SRB, 48 hours exposure
# Summary of the method: as §2
# HT-29 [3] = test: Inhibition of cells growth by colorimetric assay (SRB), HT-29; type: cell-based; details: SRB, 48 hours exposure; for HT-29 TGI / GI50: HT-29; for GI50: read-out: HT-29 GI50; for LC50 (concentration for 50% cell killing): read-out: HT-29 LC50, HT-29
# Summary of the method: as §2
# LNCaP = test: Inhibition of cells growth by colorimetric assay (SRB), LNCaP; type: cell-based; details: LNCAP, SRB, 48 hours exposure
# Summary of the method: as §2
# SK-OV-3 = test: Inhibition of cells growth by colorimetric assay (SRB), SK-OV-3; type: cell-based; details: SK-OV3, SRB, 48 hours exposure
# Summary of the method: as §2
# HMEC1 = test: Inhibition of cells growth by colorimetric assay (SRB), HMEC1; type: cell-based; details: HMEC-1, SRB, 48 hours exposure
# Summary of the method: as §2
# IGROV-ET = test: Inhibition of cells growth by colorimetric assay (SRB), IGROV-ET; type: cell-based; details: IGROV-ET, SRB, 48 hours exposure
# Summary of the method: as §2
# DU-145 = test: Inhibition of cells growth by colorimetric assay (SRB), DU-145; type: cell-based; details: DU-145, SRB, 48 hours exposure
# Summary of the method: as §2
# IGROV-1 = test: Inhibition of cells growth by colorimetric assay (SRB), IGROV-1; type: cell-based; details: IGROV, SRB, 48 hours exposure
# Summary of the method: as §2
# A-549 [4] = test: Inhibition of cells growth by colorimetric assay (SRB), A-549; type: cell-based; details: SRB, 48 hours exposure
# Summary of the method: as §2
# LoVo = test: Inhibition of cells growth by colorimetric assay (SRB), LoVo; type: cell-based; details: LOVO, SRB, 48 hours exposure
# Summary of the method: as §2
# SK-MEL-28 = test: Inhibition of cells growth by colorimetric assay (SRB), SK-MEL-28; type: cell-based; details: MEL-28, SRB, 48 hours exposure
# Summary of the method: as §2
# PANC-1 = test: Inhibition of cells growth by colorimetric assay (SRB), PANC-1; type: cell-based; details: PANC-1, SRB, 48 hours exposure
# Summary of the method: as §2
# [5] = Homo sapiens, A549, 48 h, A-549, read-out: A-549 GI50
# [6] = Homo sapiens, A549, 48 h, read-out: A-549 LC50, A-549
# From the text for Heart: (§3) Toxicity was asssessed by the methods reported in Toxicology in Vitro, 15 (2001) 571-577, J. Luber Narod et al.: “Evaluation of the use of in vitro methodolodies as tools for screening new compounds for potential in vivo toxicity”.
# From the text for Kidney: as §3
# From the text for Liver: as §3
# From the text for Myelo: as §3
# From the text for Skeletal: as §3
smiles,measurement,setting,value
COc1cc2c(cc1OC(C)=O)CCN[C@]21CS[C@@H]2c3c(OC(C)=O)c(C)c4c(c3[C@H](COC1=O)N1C2[C@H]2c3c(cc(C)c(OC)c3O)C[C@@H]([C@@H]1O)N2C)OCO4 (some centres unmarked) [Compound 57],IC50,HT-29 [1],0.149 nM
same,IC50,MEL-28,0.149 nM
same,Toxicity Data Liver,Liver,4.66E-09
same,IC50,A-549 [2],0.149 nM
same,Toxicity Data Kidney,Kidney,3.35E-09
same,Toxicity Data Heart,Heart,3.48E-09
same,Toxicity Data Myelo,Myelo,1.85E-08
same,IC50,P-388,0.149 nM
COc1cc2c(cc1OC(=O)Cc1cc(=O)oc3cc(N(C)C)ccc13)CCN[C@]21CS[C@@H]2c3c(OC(C)=O)c(C)c4c(c3[C@H](COC1=O)N1C2[C@H]2c3c(cc(C)c(OC)c3OC(=O)Cc3cc(=O)oc5cc(N(C)C)ccc35)C[C@@H]([C@@H]1O)N2C)OCO4 (some centres unmarked) [Compound 78],K-562 TGI,K-562,2.56E-09
same,GI50,K-562; read-out: K-562 GI50,1.24 nM
same,LC50 (50% cell killing),K-562; read-out: K-562 LC50,7.5 nM
same,SK-BR3 TGI,SK-BR-3,1.70E-08
same,GI50,SK-BR-3; read-out: SK-BR3 GI50,4.31 nM
same,CC50,SK-BR-3; read-out: SK-BR3 LC50,63.3 nM
same,LOVO-DOX TGI,LoVo-Dox,8.77E-07
same,GI50,LoVo-Dox; read-out: LOVO-DOX GI50,88.5 nM
same,HT-29 TGI,HT-29 [3],1.10E-07
same,GI50,HT-29 [3],17.1 nM
same,Toxicity Data Liver,Liver,5.88E-08
same,LNCAP TGI,LNCaP,4.05E-09
same,GI50,LNCaP; read-out: LNCAP GI50,2.74 nM
same,CC50,LNCaP; read-out: LNCAP LC50,5.99 nM
same,SK-OV3 TGI,SK-OV-3,6.27E-08
same,GI50,SK-OV-3; read-out: SK-OV3 GI50,3.79 nM
same,HMEC-1 TGI,HMEC1,2.35E-07
same,GI50,HMEC1; read-out: HMEC-1 GI50,28.3 nM
same,IGROV-ET TGI,IGROV-ET,7.42E-07
same,GI50,IGROV-ET; read-out: IGROV-ET GI50,114 nM
same,DU-145 TGI,DU-145,8.52E-09
same,GI50,DU-145; read-out: DU-145 GI50,3.21 nM
same,IGROV TGI,IGROV-1,6.27E-09
same,GI50,IGROV-1; read-out: IGROV GI50,2.38 nM
same,CC50,IGROV-1; read-out: IGROV LC50,53.9 nM
same,TGI A-549,A-549 [4]; A-549,1.99E-08
same,GI50,"A-549 [4]; A-549, read-out: GI50 A-549",9.59 nM
same,LC50 (concentration for 50% cell killing),"A-549 [4]; read-out: A-549 LC50, A-549",41.1 nM
same,Toxicity Data Kidney,Kidney,2.59E-07
same,LOVO TGI,LoVo,2.83E-08
same,GI50,LoVo; read-out: LOVO GI50,10.7 nM
same,LC50 (concentration for 50% cell killing),LoVo; read-out: LOVO LC50,74.3 nM
same,MEL-28 TGI,SK-MEL-28,4.48E-09
same,GI50,SK-MEL-28; read-out: MEL-28 GI50,2.15 nM
same,CC50,SK-MEL-28; read-out: MEL-28 LC50,16.9 nM
same,Toxicity Data Heart,Heart,8.19E-07
same,PANC-1 TGI,PANC-1,3.24E-08
same,GI50,PANC-1; read-out: PANC-1 GI50,5.42 nM
same,LC50 (concentration for 50% net cell kill),PANC-1; read-out: PANC-1 LC50,4900 nM
same,Toxicity Data Skeletal,Skeletal,1.96E-08
C=COC(=O)Oc1cc2c(cc1OC)[C@@]1(CS[C@@H]3c4c(OC(C)=O)c(C)c5c(c4[C@H](COC1=O)N1C3[C@H]3c4c(cc(C)c(OC)c4OC(=O)OC=C)C[C@@H]([C@@H]1O)N3C)OCO5)NCC2 (some centres unmarked) [Compound 92],HT-29 TGI,HT-29 [3],1.11E-09
same,GI50,"HT-29 [3]; Homo sapiens, HT-29, 48 h",1.11 nM
same,LC50 (concentration for 50% cell killing),"HT-29 [3]; Homo sapiens, HT-29, 48 h",55.5 nM
same,Toxicity Data Liver,Liver,2.30E-08
same,A-549 TGI,A-549 [4]; A-549,7.77E-09
same,GI50,A-549 [4]; [5],3.33 nM
same,LC50 (concentration for 50% cell killing),A-549 [4]; [6],33.3 nM
same,Toxicity Data Kidney,Kidney,1.35E-08
same,Toxicity Data Heart,Heart,2.80E-08
same,Toxicity Data Myelo,Myelo,1.92E-08
same,Toxicity Data Skeletal,Skeletal,1.21E-08
C=COC(=O)Oc1cc2c(cc1OC)[C@@]1(CS[C@@H]3c4c(OC(C)=O)c(C)c5c(c4[C@H](COC1=O)N1C3[C@H]3c4c(cc(C)c(OC)c4OC(=O)OC=C)C[C@@H]([C@@H]1O)N3C)OCO5)N(C(=O)OC=C)CC2 (some centres unmarked) [Compound 99],HT-29 TGI,HT-29 [3],1.03E-07
same,GI50,"HT-29 [3]; Homo sapiens, HT-29, 48 h",34.3 nM
same,LC50 (concentration for 50% cell killing),"HT-29 [3]; Homo sapiens, HT-29, 48 h",10300 nM
same,Toxicity Data Liver,Liver,4.80E-08
same,A-549 TGI,A-549 [4]; A-549,9.96E-08
same,GI50,A-549 [4]; [5],43.5 nM
same,LC50 (concentration for 50% cell killing),A-549 [4]; [6],10300 nM
same,Toxicity Data Kidney,Kidney,2.56E-08
same,Toxicity Data Heart,Heart,1.13E-07
same,Toxicity Data Myelo,Myelo,1.45E-07
same,Toxicity Data Skeletal,Skeletal,9.71E-08
CCCC(=O)Oc1c(C)c2c(c3c1[C@H]1SC[C@]4(NCCc5cc(O)c(OC)cc54)C(=O)OC[C@@H]3N3C1[C@H]1c4c(cc(C)c(OC)c4O)C[C@@H]([C@@H]3O)N1C)OCO2 (some centres unmarked) [Compound 163],HT-29 TGI,HT-29 [3],1.14E-09
same,GI50,"HT-29 [3]; Homo sapiens, HT-29, 48 h",0.38 nM
same,LC50 (concentration for 50% cell killing),"HT-29 [3]; Homo sapiens, HT-29, 48 h",3.8 nM
same,Toxicity Data Liver,Liver,9.80E-07
same,A-549 TGI,A-549 [4]; A-549,2.53E-09
same,GI50,A-549 [4]; [5],0.38 nM
same,LC50 (concentration for 50% cell killing),A-549 [4]; [6],8.86 nM
same,Toxicity Data Kidney,Kidney,6.33E-07
same,Toxicity Data Heart,Heart,4.80E-07
same,Toxicity Data Myelo,Myelo,2.38E-07
same,Toxicity Data Skeletal,Skeletal,2.53E-06
C=CCOC(=O)Oc1c(C)c2c(c3c1[C@H]1SC[C@]4(NCCc5cc(O)c(OC)cc54)C(=O)OC[C@@H]3N3C1[C@H]1c4c(cc(C)c(OC)c4O)C[C@@H]([C@@H]3O)N1C)OCO2 (some centres unmarked) [Compound 165],HT-29 TGI,HT-29 [3],3.73E-10
same,GI50,"HT-29 [3]; Homo sapiens, HT-29, 48 h",0.249 nM
same,LC50 (concentration for 50% cell killing),"HT-29 [3]; Homo sapiens, HT-29, 48 h",0.995 nM
same,Toxicity Data Liver,Liver,1.68E-08
same,A-549 TGI,A-549 [4]; A-549,3.73E-10
same,GI50,A-549 [4]; [5],0.124 nM
same,LC50 (concentration for 50% cell killing),A-549 [4]; [6],1.24 nM
same,Toxicity Data Kidney,Kidney,1.89E-08
same,Toxicity Data Heart,Heart,2.79E-08
same,Toxicity Data Myelo,Myelo,2.87E-08
same,Toxicity Data Skeletal,Skeletal,1.47E-08
